Measurements reported in the supplement of paper PMC8617591.

Legend:
[1] = test system: Mycobacterium tuberculosis Erdman (autoluminescent); assay: Einf, fitted maximum growth inhibition of combination (fraction); higher = stronger maximal inhibition
Experimental: (§1)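 DiaMOND equipotent two-drug combination dose responses against autoluminescent M. tuberculosis Erdman in 8 in vitro models. Read-out is OD600, or luminescence for the intracellular and dormancy models, normalised to untreated wells. Hill-fit Einf, AUC25 and GRinf are potency metrics; FIC50 and FIC90 are Loewe-additivity fractional inhibitory concentrations, given as log2 (negative = synergy). Replicates are averaged.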

[2] = test system: Mycobacterium tuberculosis Erdman (autoluminescent); assay: FIC90 (Loewe) at 90% inhibition (log2); higher = more antagonistic
Experimental: as §1

[3] = test system: Mycobacterium tuberculosis Erdman (autoluminescent); assay: GRinf, maximum normalised growth rate inhibition (unitless (-1 to 1)); higher = less effect (negative = killing)
Experimental: as §1

[4] = test system: Mycobacterium tuberculosis Erdman (autoluminescent); assay: AUC25, normalised area under dose response up to IC25 (fraction (0-1)); higher = more potent at low dose
Experimental: as §1

[5] = test system: Mycobacterium tuberculosis Erdman (autoluminescent); assay: FIC50 (Loewe) at 50% inhibition (log2); higher = more antagonistic
Experimental: as §1

COc1nc2ccc(Br)cc2cc1[C@@H](c1ccccc1)[C@@](O)(CCN(C)C)c1cccc2ccccc12 [bedaquiline] + CO[C@H]1/C=C/O[C@@]2(C)Oc3c(C)c(O)c4c(O)c(c(/C=N/N5CCN(C6CCCC6)CC5)c(O)c4c3C2=O)NC(=O)/C(C)=C\C=C\[C@H](C)[C@H](O)[C@@H](C)[C@@H](O)[C@@H](C)[C@H](OC(C)=O)[C@@H]1C [rifapentine]
Details | AUC25, [4] | Einf, [1] | FIC50, [5] | FIC90, [2] | GRinf, [3]
in vitro model: acidic pH 5.7, time point: constant (~7 days, model-specific) | 0.0995 | 0.969 | 0.322 | 0.172 | -0.693
in vitro model: acidic pH 5.7, time point: terminal (~4-5 doublings, model-specific) | 0.0881 | 0.998 | 0.392 | 0.396 | -0.38
in vitro model: intracellular J774, time point: constant = terminal | – | 0.943 | – | 0.658 | -0.214

Details | AUC25, [4] | Einf, [1] | FIC50, [5] | FIC90, [2] | GRinf, [3]
in vitro model: butyrate, time point: constant (~7 days, model-specific) | 0.0889 | 0.933 | 0.485 | 0.365 | -0.0857
in vitro model: butyrate, time point: terminal (~4-5 doublings, model-specific) | 0.0717 | 0.976 | 0.482 | 0.362 | -0.102
in vitro model: cholesterol 0.05 mM, time point: constant (~7 days, model-specific) | 0.119 | 0.787 | 0.249 | – | -0.201
in vitro model: cholesterol 0.05 mM, time point: terminal (~4-5 doublings, model-specific) | 0.0716 | 0.93 | 0.341 | 0.609 | -0.223
in vitro model: cholesterol-high 0.2 mM, time point: constant (~7 days, model-specific) | 0.0555 | 0.969 | 0.211 | -0.159 | -0.659
in vitro model: cholesterol-high 0.2 mM, time point: terminal (~4-5 doublings, model-specific) | 0.0435 | 1 | 0.367 | 0.259 | -0.615
in vitro model: dormancy (butyrate + nitrate, low O2), time point: constant (~7 days, model-specific) | 0.072 | 0.941 | 0.549 | 1 | 0.16
in vitro model: dormancy (butyrate + nitrate, low O2), time point: terminal (~4-5 doublings, model-specific) | 0.0609 | 0.981 | 0.481 | 0.635 | -0.111
in vitro model: standard 7H9 glycerol, time point: constant = terminal | 0.0637 | 0.949 | 0.236 | 0.112 | -0.0779
in vitro model: valerate, time point: constant (~7 days, model-specific) | 0.0652 | 0.899 | 0.621 | – | -0.0573
in vitro model: valerate, time point: terminal (~4-5 doublings, model-specific) | 0.0336 | 0.955 | 0.678 | 0.464 | -0.0667

COc1nc2ccc(Br)cc2cc1[C@@H](c1ccccc1)[C@@](O)(CCN(C)C)c1cccc2ccccc12 [bedaquiline] + CO[C@H]1/C=C/O[C@@]2(C)Oc3c(C)c(O)c4c(O)c(c(/C=N/N5CCN(C)CC5)c(O)c4c3C2=O)NC(=O)/C(C)=C\C=C\[C@H](C)[C@H](O)[C@@H](C)[C@@H](O)[C@@H](C)[C@H](OC(C)=O)[C@@H]1C [rifampicin]
Details | AUC25, [4] | Einf, [1] | FIC50, [5] | FIC90, [2] | GRinf, [3]
in vitro model: acidic pH 5.7, time point: constant (~7 days, model-specific) | 0.11 | 0.966 | 0.235 | -0.844 | -0.709
in vitro model: acidic pH 5.7, time point: terminal (~4-5 doublings, model-specific) | 0.0796 | 0.995 | 0.0554 | -0.216 | -0.353
in vitro model: intracellular J774, time point: constant = terminal | – | 0.963 | – | 0.648 | -0.255

Details | AUC25, [4] | Einf, [1] | FIC50, [5] | FIC90, [2] | GRinf, [3]
in vitro model: butyrate, time point: constant (~7 days, model-specific) | 0.112 | 0.958 | 0.393 | 0.174 | -0.181
in vitro model: butyrate, time point: terminal (~4-5 doublings, model-specific) | 0.0949 | 0.988 | 0.398 | 0.429 | -0.18
in vitro model: cholesterol 0.05 mM, time point: constant (~7 days, model-specific) | 0.104 | 0.722 | 0.0154 | – | -0.0966
in vitro model: cholesterol 0.05 mM, time point: terminal (~4-5 doublings, model-specific) | 0.0851 | 0.919 | 0.343 | -0.364 | -0.181
in vitro model: cholesterol-high 0.2 mM, time point: constant (~7 days, model-specific) | 0.0637 | 0.982 | 0.194 | -0.00523 | -0.639
in vitro model: cholesterol-high 0.2 mM, time point: terminal (~4-5 doublings, model-specific) | 0.058 | 1 | 0.318 | 0.223 | -0.64
in vitro model: dormancy (butyrate + nitrate, low O2), time point: constant (~7 days, model-specific) | 0.0984 | 0.921 | 0.234 | 0.896 | 0.149
in vitro model: dormancy (butyrate + nitrate, low O2), time point: terminal (~4-5 doublings, model-specific) | 0.0644 | 0.985 | 0.332 | 0.603 | -0.312
in vitro model: standard 7H9 glycerol, time point: constant = terminal | 0.0718 | 0.93 | 0.22 | 0.326 | -0.0375
in vitro model: valerate, time point: constant (~7 days, model-specific) | 0.0727 | 0.914 | 0.714 | – | -0.108
in vitro model: valerate, time point: terminal (~4-5 doublings, model-specific) | 0.0313 | 0.956 | 0.779 | 0.467 | -0.0734
